The text below walks through data of ChEMBL document CHEMBL3112428, “Biological evaluation of diazene derivatives as anti-tubercular compounds” (Eur J Med Chem, 2014).

Holding throughout (type): functional, organism-based
In assay [1] the test system is Mycobacterium tuberculosis. The experiment in a line: Antituberculosis activity against multidrug-resistant Mycobacterium tuberculosis LAM1 assessed as growth inhibition at 0.1 ug/ml measured everyday by BACTEC assay.
For assay [2], the system named is Mycobacterium tuberculosis. The assay can be described thus: Antituberculosis activity against multidrug-resistant Mycobacterium tuberculosis LAM1 assessed as growth inhibition at 1 to 5 ug/ml measured everyday by BACTEC assay.
The subject of assay [3] is Mycobacterium tuberculosis. The assay can be described thus: Antituberculosis activity against multidrug-resistant Mycobacterium tuberculosis LAM1 assessed as growth inhibition at <= 10 ug/ml measured everyday by BACTEC assay.

Calls of active or inactive are those of the source. The rule behind the calls is not given here.

With `NNC(=O)c1ccncc1` [ISONIAZID], the “growth inhibition (GI)” value in assay [1] is “inactive”. In the case of `O=C(/N=N/c1ccc(C(F)(F)F)cc1)Nc1ccccc1`, the “growth inhibition (GI)” value in assay [2] is “Active”. In the case of `CCOC(=O)/N=N/C(=O)Nc1ccc(C)cc1`, in assay [3], the “growth inhibition (GI)” value is “inactive”.
